From patent publication US9901648B2, “Stabilization of biomolecules using sugar polymers” (THE REGENTS OF THE UNIVERSITY OF CALIFORNIA, priority 2012, dated 2018)

Assays:
[1] = molecular target: T1, hen egg white lysozyme (Gallus gallus, UniProt P00698); assay: Lyophilization stability activity assay (10 lyophilization cycles, EnzChek lysozyme activity); assay type: biochemical
T1 construct: reconstituting hen egg white lysozyme (0.1 mg/mL, DPBS, pH 7.4) as received without further purification; purchased Sigma-Aldrich; host or cells: hen egg white
T1 sequence (P00698 19-147): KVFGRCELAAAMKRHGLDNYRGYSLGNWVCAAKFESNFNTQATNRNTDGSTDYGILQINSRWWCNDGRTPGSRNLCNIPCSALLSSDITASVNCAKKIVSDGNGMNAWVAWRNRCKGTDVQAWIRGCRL
Description: (§1) Lysozyme-glycopolymer conjugate (Lyz-6). To a 1.5 mL Lo-Bind® centrifuge tube was added thiopropionyl hen egg white lysozyme (LyzSH) (70 μL, 10 mg/mL, DPBS, pH 8.0) and 6 (16 mg, 0.71 μmol, 15 eq) and the entire reaction was diluted to a final volume of 500 μL (DPBS, pH 8.0) before storage at 4° C. for 3 hours. The resulting mixture was purified by FPLC (50 mM PB, 150 mM NaCl, pH 7.4), fractions were concentrated by centriprep ultrafiltration (MWCO 3 kDa, DPBS, pH 7.4) and stored at 4° C. Samples were diluted 5 fold before the EnzChek® lysozyme activity assay was employed to measure fraction activity. In a typical assay 50 μL of diluted sample was incubated with 50 μL of Micrococcus luteus labeled with FITC (1 mg/mL) at 37° C. for 1 hour. Subsequently, fluorescence of lysed cell membrane and thus lysozyme activity was measured as FITC fluorescence (abs 480 nm/em 530 nm) and quantified relative to known standards.
Wild-type lysozyme was prepared by reconstituting hen egg white lysozyme (0.1 mg/mL, 1 eq, DPBS, pH 7.4) as received without further purification. Samples were further diluted to 0.021 mg/mL (1 kU/mL) in 20 μL aliquots prior to application of lyophilization or thermal insults.
Wild-type lysozyme samples mixed with glyco-polymer were prepared by adding trehalose polymer (Poly 5-8, 1 or 100 eq relative to lysozyme) to a solution of lysozyme (0.1 mg/mL, DPBS, pH 7.4) before storage at 4° C. Samples were further diluted to a lysozyme concentration of 0.021 mg/mL (1 kU/mL) in 20 μL aliquots prior to application of lyophilization or thermal insult.
Wild-type lysozyme samples mixed with trehalose were prepared by adding trehalose (1 or 100 eq relative to the number of trehalose monomer units in Poly 5-8) to a solution of lysozyme (0.1 mg/mL, DPBS, pH 7.4) before storage at 4° C. […]
(§2) Wild-type lysozyme was prepared by reconstituting hen egg white lysozyme (0.1 mg/mL, DPBS, pH 7.4) as received without further purification. […] Statistics were calculated utilizing the Students t test; % confidence as +/−=t*(standard deviation)/(number of trials)^(½) with p<1−% confidence/100.

[2] = molecular target: T1, hen egg white lysozyme; assay: Thermo-stability (heat burden) assay, 90° C., EnzChek lysozyme activity; assay type: biochemical
Description: as §1, with “standards. […]” for “standards.”
as §2, with “received and was stored” for “received”, “purification at 4° C. in 20 μL aliquots. […] Activities of stressed samples were measured relative to identical aliquots that were not exposed to heat.” for “purification.”

[3] = system: horseradish peroxidase (HRP); assay: Horseradish peroxidase stabilization at 70° C. (TMB activity); assay type: biochemical; settings: 70° C. for 30 min; HRP 75 μg/mL; 7500 equivalent of trehalose
Description: The activity of horseradish peroxidase (HRP) after exposure to a temperature of 70° C. for 30 minutes was tested, and the results are provided in FIG. 28. The activity of HRP was tested through reaction with 3,3′,5,5′-tetramethylbenzidine (TMB), which produces a blue by-product. HRP samples were prepared without any additive, with 100 equivalent of P1-P4, or 7500 equivalent of trehalose, which is equal to the trehalose in the P1 sample. Heated samples were then tested for HRP reactivity and the percent original activities were calculated using same concentration of HRP without heating and additive (FIG. 28). After heating, HRP in solution without any additive, only 46% of the original activity was observed. […] The same concentration of trehalose maintained only 80% of HRP activity. All samples were repeated six times and their p value compared with no additive were <0.001.
Horseradish Peroxidase Stabilized by P1-P4 at 70° C. […] Stock solutions of 100 equiv of P1, P2, P3 and P4 and 7500 equiv of trehalose were also prepared in the same buffer. 2 μL aliquots of HRP solution were mixed with 2 μL aliquots of each polymer and trehalose solution to give final concentration of 75 μg/mL HRP or with only buffer. […] The assay was repeated 6 times following the know procedure with tetramethylbenzemidine (TMB).

[4] = molecular target: Recombinant Human Insulin (Homo sapiens, UniProt P01308); assay: Insulin stabilization at 90° C. (native gel); settings: 90° C. for 1 h; insulin 1 mg/mL; 750 equiv of trehalose
Recombinant Human Insulin, sequence (P01308 25-54 limits assumed): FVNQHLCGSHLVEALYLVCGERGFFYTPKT
Recombinant Human Insulin, sequence (P01308 90-110 limits assumed): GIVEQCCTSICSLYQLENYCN
Description: Prepared P1, P2, P3, and the same concentration of trehalose as an additive were tested for stabilization of insulin against heating under 90° C. for 1 h. After heating all the samples were loaded on the native gel (FIG. 30). Insulin without any additive was denatured and the band was almost gone in native gel. […] The MALDI-TOF data provides that insulin, originally 5.8 kDa, denatures into mainly two fragments after heating (data not shown). This is due to the breakage of two disulfide bridges liking a and β chain of insulin.
Insulin was dissolved in pH 7.4 D-PBS buffer (1 mg/mL). The samples were prepared by adding 10 equiv of P1, P2, and P3 or 750 equiv of trehalose into the insulin solution. […] Other samples with polymers or trehalose were heated as 90° C. for 1 h and ran through the native gel.

[5] = molecular target: glucose oxidase (GOX) (Aspergillus niger, UniProt P13006); assay: Glucose oxidase stabilization at 50° C. (Amplex Red assay); assay type: biochemical; settings: 50° C. for 30 min; GOX 0.1 mg/mL; 7500 equivalent of trehalose
glucose oxidase (GOX), sequence (P13006 17-605, species assumed): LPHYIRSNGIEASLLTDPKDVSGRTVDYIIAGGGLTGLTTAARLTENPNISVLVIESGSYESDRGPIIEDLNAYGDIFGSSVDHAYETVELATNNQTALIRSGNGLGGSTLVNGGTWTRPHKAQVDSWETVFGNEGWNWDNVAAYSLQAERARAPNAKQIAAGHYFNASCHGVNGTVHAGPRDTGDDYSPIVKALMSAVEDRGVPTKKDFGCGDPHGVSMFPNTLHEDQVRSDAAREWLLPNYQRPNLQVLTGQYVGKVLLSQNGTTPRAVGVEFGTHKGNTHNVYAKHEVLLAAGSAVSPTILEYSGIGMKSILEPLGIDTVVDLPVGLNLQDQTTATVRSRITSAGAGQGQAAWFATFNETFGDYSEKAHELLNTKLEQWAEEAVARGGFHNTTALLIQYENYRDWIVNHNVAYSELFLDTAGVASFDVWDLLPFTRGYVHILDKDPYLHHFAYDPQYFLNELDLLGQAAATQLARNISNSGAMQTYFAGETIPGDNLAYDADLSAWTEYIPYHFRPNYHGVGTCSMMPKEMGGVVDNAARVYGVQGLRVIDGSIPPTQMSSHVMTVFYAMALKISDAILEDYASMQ
Description: Trehalose glycopolymers P1 through P4 were also tested for glucose oxidase (GOX) stabilization against 50° C. heat for 30 min. The activity of GOX was evaluated using Amplex® Red Glucose/Glucose Oxidase Assay Kit (Invitrogen). GOX reacts with D-glucose to form H2O2, which can then react with the Amplex® in the presence of horseradish peroxidase (HRP) to generate resorufin and can be detected by fluorescence. GOX samples were prepared without any additive, with 100 equivalent of P1-P4, and 7500 equivalent of trehalose, which is equal to the number of repeating units in the P1. All samples were heated to 50° C. for 30 min and repeated six times. Heated samples were then tested for GOX reactivity and percent original activities were calculated using same concentration of GOX without heating and additive (FIG. 29).
2 μL aliquots of GOX solution were mixed with 2 μL aliquots of each polymer and trehalose solution or buffer only to give the final concentration of 0.1 mg/mL GOX. […] Activity was measured using Amplex® Red Glucose/Glucose Oxidase Assay kit following the product manual procedures.

[6] = system: β-galactosidase (β-Gal); settings: lyophilization cycles; β-Gal 0.1 mg/mL; 7500 equiv of trehalose

Row | activity relative to unexposed sample stored at 4° C. ([1]; 0.1 mg/mL, DPBS pH 7.4, conjugate or protein alone, no additive) [%] | retention of original activity ([1]; lysozyme 0.021 mg/mL (1 kU/mL), conjugate or protein alone) [%] | Molecule | retention of lysozyme activity with added trehalose ([1]; trehalose at equivalent concentrations to that in the 100-fold polymers) | activity retention with added trehalose ([2]; 90° C. for 1 hour, highest trehalose concentration (100 eq Poly8 monomer units)) [%] | percent original HRP activity [3] [%] | insulin band on native gel after heating [4] | percent original GOX activity [5] [%] | β-Gal original activity maintained [6] [%] | remaining activity after heat burden ([2]; 90° C. for 3 hours, 0.1 mg/mL, conjugate or protein alone)
1 | – | – | OC[C@H]1O[C@H](O[C@H]2O[C@H](CO)[C@@H](O)[C@H](O)[C@H]2O)[C@H](O)[C@@H](O)[C@@H]1O [trehalose] | 18-31% | 31 | 80 | greatly reduced | 72 | 45 | –
2 | ~20 | 16 | wild-type lysozyme: hen egg white lysozyme reconstituted as received, unmodified | – | – | – | – | – | – | no activity remained
